Measurements published in patent publication US20250313546A1, “NUCLEIC ACID BINDERS” (UNIVERSITY OF STRATHCLYDE, priority 2022, published 2025).
Values after ≈ are worked out from the molar mass of the structure shown. Read-outs that look alike come from different tables or passages of the source.

Legend:
[1] = test system: Enterococcus faecalis (ATCC 51299); experiment: Antibacterial MIC, broth microdilution (CLSI); assay type: cell-based; settings: Enterococcus faecalis, ATCC51299; read-out: MIC80 E. faecalis
[2] = test system: Escherichia coli (ATCC 25922); experiment: Antibacterial MIC, broth microdilution (CLSI); assay type: cell-based; settings: Escherichia coli, ATCC25922; read-out: MIC80 E. coli
[3] = test system: Aspergillus fumigatus; experiment: Expanded set of filamentous fungi, MIC broth microdilution (CLSI); assay type: cell-based
[4] = test system: Fusarium oxysporum; experiment: as above; assay type: cell-based; settings: MIC at 50% inhibition
[5] = test system: Fusarium solani; experiment: as above; assay type: cell-based; settings: MIC at 50% inhibition
[6] = test system: Paecilomyces variotii; experiment: as above; assay type: cell-based; settings: isolate MYA-3630, MIC at 50% inhibition
[7] = test system: Rhizopus arrhizus; experiment: as above; assay type: cell-based
[8] = test system: Blastomyces dermatitidis; experiment: as above; assay type: cell-based
[9] = test system: Candida parapsilosis; experiment: Expanded set of yeasts, MIC broth microdilution (CLSI); assay type: cell-based; settings: MIC at 50% inhibition; for MIC50: Lodderomyces parapsilosis
[10] = test system: C. albicans; experiment: as above; assay type: cell-based; settings: MIC at 50% inhibition; for MIC50: Candida albicans
[11] = test system: C. auris; experiment: as above; assay type: cell-based; settings: MIC at 50% inhibition
[12] = test system: C. glabrata; experiment: as above; assay type: cell-based; settings: Nakaseomyces glabratus, MIC at 50% inhibition
[13] = test system: C. guilliiermondii; experiment: as above; assay type: cell-based; settings: MIC at 50% inhibition
[14] = test system: Genomic double stranded DNA (salmon); experiment: Fluorescence intercalator displacement (FID) assay, SYBR-safe probe; settings: 20 μM compound, 30° C., lower % = stronger binding
How it was run: (§1)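 Probe displacement was measured at 30 °C in 1 mM phosphate pH 7.4 containing SybrSafe (12500-fold dilution), 3.76 ng/mL nucleic acid (salmon dsDNA or polyAU dsRNA) and 20 μM compound. Fluorescence loss is normalised between probe-only and probe-plus-nucleic-acid controls.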

[15] = test system: PolyAU double stranded RNA; experiment: as above; settings: 20 μM compound, 30° C., lower % = stronger binding
How it was run: as §1

[16] = test system: C. albicans (ATCC 90028); settings: Candida albicans, ATCC90028, read-out: MIC99 C. albicans
[17] = test system: C. neoformans (F10025); settings: Cryptococcus neoformans, read-out: MIC99 C. neoformans
[18] = test system: A. fumigatus A1160 (MFIG001); settings: Aspergillus fumigatus, read-out: MIC99 A. fumigatus A1160
[19] = test system: Candida auris (H.17.157); settings: Candidozyma auris, read-out: MIC99 Candida auris
[20] = test system: Candida glabrata (ACPF3309); settings: Nakaseomyces glabratus, read-out: MIC99 Candida glabrata
[21] = test system: Scedosporium prolificans (F2746); settings: Lomentospora prolificans, read-out: MIC99 Scedosporium prolificans
Method: The Minimum Inhibitory Concentration (MIC, at 99% inhibition) of the compounds was determined using the broth microdilution method as recommended by EUCAST (EUCAST Definitive Document E.DEF 9.3.2, Method for the determination of broth dilution minimum inhibitory concentrations of antifungal agents for conidia forming moulds and EUCAST Definitive Document E.DEF 7.3.2 Method for the determination of broth dilution minimum inhibitory concentrations of antifungal agents for yeasts).

**Q.** Which MIC80 [1] does the source give for `C/N=C(\CCNC(=O)c1cc(NC(=O)c2cc(NC(=O)c3ccc(/C=C/c4ccc(N(C)C)cc4)nc3)cn2C)cn1C)NC` [Ia8, 6-((E)-4-(dimethylamino)styryl)-N-(1-methyl-5-((1-methyl-5-(((E)-3-(methylamino)-3-(methylimino)propyl)carbamoyl)-1H-pyrrol-3-yl)carbamoyl)-1H-pyrrol-3-yl)nicotinamide] here?
**A.** Its MIC80 is 25 to 100 µM (≈ 15.2 to 61 µg/mL).

**Q.** And the MIC80 [2]?
**A.** The MIC80 was over 100 µM.

**Q.** What about the MIC50 ([3]; isolate AF293, MIC at 50% inhibition) of the same compound?
**A.** Its MIC50 is 1 to 8 µg/mL (≈ 1.64 to 13.1 µM).

**Q.** What about the MIC50 ([3]; isolate DI15-106, MIC at 50% inhibition) of the same compound?
**A.** The MIC50 was 1 to 8 µg/mL (≈ 1.64 to 13.1 µM).

**Q.** And the MIC50 ([3]; isolate DI15-116, MIC at 50% inhibition)?
**A.** Its MIC50 is 1 to 8 µg/mL (≈ 1.64 to 13.1 µM).

**Q.** And the MIC50 ([3]; isolate DI19-187, MIC at 50% inhibition)?
**A.** Its MIC50 is 1 to 8 µg/mL (≈ 1.64 to 13.1 µM).

**Q.** And the MIC50 ([3]; isolate DI19-230, MIC at 50% inhibition)?
**A.** Its MIC50 is 1 to 8 µg/mL (≈ 1.64 to 13.1 µM).

**Q.** And the MIC50 ([3]; isolate DI19-231, MIC at 50% inhibition)?
**A.** The MIC50 was 1 to 8 µg/mL (≈ 1.64 to 13.1 µM).

**Q.** And the MIC50 ([3]; isolate DI19-232, MIC at 50% inhibition)?
**A.** The MIC50 was 1 to 8 µg/mL (≈ 1.64 to 13.1 µM).

**Q.** And the MIC50 ([3]; isolate DI19-233, MIC at 50% inhibition)?
**A.** Its MIC50 is 1 to 8 µg/mL (≈ 1.64 to 13.1 µM).

**Q.** And the MIC50 ([3]; isolate DI19-234, MIC at 50% inhibition)?
**A.** Its MIC50 is 1 to 8 µg/mL (≈ 1.64 to 13.1 µM).

**Q.** What about the MIC50 ([3]; isolate DI19-236, MIC at 50% inhibition) of the same compound?
**A.** The MIC50 was 1 to 8 µg/mL (≈ 1.64 to 13.1 µM).

**Q.** What about the MIC50 ([3]; isolate DI19-237, MIC at 50% inhibition) of the same compound?
**A.** The MIC50 was 1 to 8 µg/mL (≈ 1.64 to 13.1 µM).

**Q.** What about the MIC50 ([3]; isolate DI20-95, MIC at 50% inhibition) of the same compound?
**A.** Its MIC50 is 1 to 8 µg/mL (≈ 1.64 to 13.1 µM).

**Q.** What about the MIC50 ([3]; isolate DI20-103, MIC at 50% inhibition) of the same compound?
**A.** The MIC50 was 1 to 8 µg/mL (≈ 1.64 to 13.1 µM).

**Q.** And the MIC50 ([4]; Fusarium oxysporum, isolate F2)?
**A.** The MIC50 was at most 1 µg/mL.

**Q.** And the “MIC50 Fusarium oxysporum” value ([4]; isolate F3)?
**A.** The value was “*** (*** means MIC50 <= 1 μg/mL)”.

**Q.** What about the MIC50 ([5]; Fusarium solani, isolate F4) of the same compound?
**A.** The MIC50 was at most 1 µg/mL.

**Q.** What about the “MIC50 Fusarium solani” value ([5]; isolate DI19-284) of the same compound?
**A.** The value was “*** (*** means MIC50 <= 1 μg/mL)”.

**Q.** And the MIC50 [6]?
**A.** Its MIC50 is 1 to 8 µg/mL (≈ 1.64 to 13.1 µM).

**Q.** What about the MIC50 ([7]; isolate 99-880, MIC at 50% inhibition) of the same compound?
**A.** Its MIC50 is 1 to 8 µg/mL (≈ 1.64 to 13.1 µM).

**Q.** What about the MIC50 ([7]; isolate 99-892, MIC at 50% inhibition) of the same compound?
**A.** The MIC50 was 1 to 8 µg/mL (≈ 1.64 to 13.1 µM).

**Q.** And the MIC50 ([7]; isolate RA3, MIC at 50% inhibition)?
**A.** Its MIC50 is 1 to 8 µg/mL (≈ 1.64 to 13.1 µM).

**Q.** And the MIC50 ([8]; isolate BD1, MIC at 50% inhibition)?
**A.** The MIC50 was 1 to 8 µg/mL (≈ 1.64 to 13.1 µM).

**Q.** What about the MIC50 ([8]; isolate BD2, MIC at 50% inhibition) of the same compound?
**A.** Its MIC50 is 1 to 8 µg/mL (≈ 1.64 to 13.1 µM).

**Q.** And the MIC50 ([8]; isolate BD3, MIC at 50% inhibition)?
**A.** Its MIC50 is 1 to 8 µg/mL (≈ 1.64 to 13.1 µM).

**Q.** And the MIC50 ([9]; ATCC22019, isolate ATCC 22019, read-out: MIC50 Candida parapsilosis)?
**A.** The MIC50 was 1 to 8 µg/mL (≈ 1.64 to 13.1 µM).

**Q.** And the MIC50 ([9]; isolate CP1, read-out: MIC50 C. parapsilosis)?
**A.** Its MIC50 is 1 to 8 µg/mL (≈ 1.64 to 13.1 µM).

**Q.** And the “MIC50 C. parapsilosis” value ([9]; isolate CP2)?
**A.** The value was “** (** means 1 μg/mL < MIC50 <= 8 μg/mL)”.

**Q.** What about the “MIC50 C. parapsilosis” value ([9]; isolate CP3) of the same compound?
**A.** The value was “** (** means 1 μg/mL < MIC50 <= 8 μg/mL)”.

**Q.** And the MIC50 ([10]; isolate CA3)?
**A.** The MIC50 was 1 to 8 µg/mL (≈ 1.64 to 13.1 µM).

**Q.** What about the MIC50 ([10]; isolate SC5314) of the same compound?
**A.** The MIC50 was 1 to 8 µg/mL (≈ 1.64 to 13.1 µM).

**Q.** What about the “MIC50 C. albicans” value ([10]; isolate CA90028) of the same compound?
**A.** Its value is “** (** means 1 μg/mL < MIC50 <= 8 μg/mL)”.

**Q.** What about the MIC50 ([11]; Candidozyma auris, isolate DI17-47) of the same compound?
**A.** Its MIC50 is 1 to 8 µg/mL (≈ 1.64 to 13.1 µM).

**Q.** And the “MIC50 C. auris” value ([11]; isolate DI17-46)?
**A.** The value was “** (** means 1 μg/mL < MIC50 <= 8 μg/mL)”.

**Q.** What about the “MIC50 C. auris” value ([11]; isolate DI17-48) of the same compound?
**A.** The value was “** (** means 1 μg/mL < MIC50 <= 8 μg/mL)”.

**Q.** What about the MIC50 ([12]; isolate 05-62) of the same compound?
**A.** Its MIC50 is 1 to 8 µg/mL (≈ 1.64 to 13.1 µM).

**Q.** And the MIC50 ([12]; isolate 05-761)?
**A.** Its MIC50 is 1 to 8 µg/mL (≈ 1.64 to 13.1 µM).

**Q.** And the MIC50 ([12]; isolate CG3)?
**A.** The MIC50 was 1 to 8 µg/mL (≈ 1.64 to 13.1 µM).

**Q.** And the MIC50 ([13]; isolate Cgui1)?
**A.** Its MIC50 is 1 to 8 µg/mL (≈ 1.64 to 13.1 µM).

**Q.** What about the “MIC50 C. guilliiermondii” value ([13]; isolate Cgui2) of the same compound?
**A.** The value was “** (** means 1 μg/mL < MIC50 <= 8 μg/mL)”.

**Q.** What about the “MIC50 C. guilliiermondii” value ([13]; isolate Cgui3) of the same compound?
**A.** The value was “** (** means 1 μg/mL < MIC50 <= 8 μg/mL)”.

**Q.** And the “% Normalised Fluorescence with gDNA” value [14]?
**A.** The value was 4%.

**Q.** What about the “% Normalised Fluorescence with polyAU RNA” value [15] of the same compound?
**A.** The value was 9%.

**Q.** And the MIC99 [16]?
**A.** Its MIC99 is 25 to 50 µg/mL (≈ 41 to 82 µM).

**Q.** What about the MIC99 [17] of the same compound?
**A.** Its MIC99 is 5 to 25 µg/mL (≈ 8.2 to 41 µM).

**Q.** And the MIC99 [18]?
**A.** The MIC99 was 5 to 25 µg/mL (≈ 8.2 to 41 µM).

**Q.** What about the MIC99 [19] of the same compound?
**A.** The MIC99 was over 50 µg/mL.

**Q.** What about the MIC99 [20] of the same compound?
**A.** Its MIC99 is 5 to 25 µg/mL (≈ 8.2 to 41 µM).

**Q.** What about the MIC99 [21] of the same compound?
**A.** The MIC99 was 5 to 25 µg/mL (≈ 8.2 to 41 µM).
